# Experimental data published in BindingDB's records for doi:10.1021/acs.jmedchem.1c00926 (Biogen, 2022).
# pIC50: −log10 of the molar value.
# Assay: Inhibition of CD69 in human whole blood preincubated for 30 mins followed by anti-human IgD stimulation and measured after 18 to 22 hrs by flow cytometry
row,SMILES,pIC50
1,Cn1cc(Nc2nccc(-c3ccc4c(c3)CCCC[C@H]4NC(=O)c3nc(C(C)(C)C)no3)n2)cn1,7.23
2,"Cn1cc(Nc2nccc(-c3ccc4c(c3)CCCCC4NC(=O)c3cn(C(C)(C)C)nn3)n2)cn1 (centres undefined) [1-(tert-butyl)-N-(2-(2-((1-methyl-1H-pyrazol-4-yl)amino)pyrimidin-4-yl)-6,7,8,9-tetrahydro-5H-benzo[7]annulen-5-yl)-1H-1,2,3-triazole-4-carboxamide]",6.07
3,Cc1c(NC(=O)c2cc3c(s2)CCCC3)cccc1-c1cn(C)c(=O)c(Nc2ccc(C3CN(C)CC(=O)N3C)cc2)n1 (centres undefined),5.92
4,"Cn1cc(Nc2nccc(-c3ccc4c(c3)CCCCC4NC(=O)c3nnc(C(C)(C)C)o3)n2)cn1 (centres undefined) [5-(tert-butyl)-N-(2-(2-((1-methyl-1H-pyrazol-4-yl)amino)pyrimidin-4-yl)-6,7,8,9-tetrahydro-5H-benzo[7]annulen-5-yl)-1,3,4-oxadiazole-2-carboxamide]",6.41
5,CN1CCc2cc(-c3ccnc(Nc4cnn(C)c4)n3)ccc2[C@H](NC(=O)c2cn(C(C)(C)C)nn2)C1,6.15
6,Cn1cc(Nc2nccc(-c3ccc4c(c3)CCCC[C@H]4NC(=O)c3cn(C(C)(C)C)nn3)n2)cn1,6.98
7,"COCCN1CC[C@@H](NC(=O)c2cn(C(C)(C)C)nn2)c2ccc(-c3ccnc(Nc4cnn(C)c4)n3)cc2C1 [(R)-1-(tert-butyl)-N-(2-(2-methoxyethyl)-8-(2-((1-methyl-1H-pyrazol-4-yl)amino)pyrimidin-4-yl)-2,3,4,5-tetrahydro-1H-benzo[c]azepin-5-yl)-1H-1,2,3-triazole-4-carboxamide ]",6.10
8,Cn1cc(Nc2nccc(-c3ccc4c(c3)CCNC[C@H]4NC(=O)c3cn(C(C)(C)C)nn3)n2)cn1,6.40
9,CC(C)OC1CN(C(=O)N[C@@H]2CCCCc3cc(-c4ccnc(Nc5cnn(C)c5)n4)ccc32)C1,6.40
10,"Cn1cc(Nc2nccc(-c3ccc4c(c3)CCCC[C@H]4NC(=O)c3nnc(C(C)(C)C)o3)n2)cn1 [(R)-5-(tert-butyl)-N-(2-(2-((1-methyl-1H-pyrazol-4-yl)amino)pyrimidin-4-yl)-6,7,8,9-tetrahydro-5H-benzo[7]annulen-5-yl)-1,3,4-oxadiazole-2-carboxamide ]",6.48
11,Cn1cc(Nc2nccc(-c3ccc4c(c3)CNCC[C@H]4NC(=O)c3cn(C(C)(C)C)nn3)n2)cn1,5.80
12,Cn1cc(Nc2nccc(-c3ccc4c(c3)CCCCC4NC(=O)N3CC[C@@H](C(C)(C)C)C3)n2)cn1 (some centres undefined),7.40
13,"Cn1cc(Nc2nccc(-c3ccc4c(c3)CCCCC4NC(=O)c3nc(C(C)(C)C)no3)n2)cn1 (centres undefined) [3-(tert-butyl)-N-(2-(2-((1-methyl-1H-pyrazol-4-yl)amino)pyrimidin-4-yl)-6,7,8,9-tetrahydro-5H-benzo[7]annulen-5-yl)-1,2,4-oxadiazole-5-carboxamide ]",6.66
14,Cn1cc(Nc2nccc(-c3ccc4c(c3)CCCCC4NC(=O)c3cnc(C(C)(C)C)nc3)n2)cn1 (centres undefined),< 5.00
